Source: PMC11243685, “Synthesis and Enzymatic Evaluation of a Small Library of Substituted Phenylsulfonamido-Alkyl Sulfamates towards Carbonic Anhydrase II” (Molecules, 2024)

What was measured:
[1] = target: T1, bovine carbonic anhydrase II (Bos taurus, UniProt P00921); experiment: Enzymatic assay of bCA II inhibition, absorbance at 415 nm; assay type: biochemical; conditions: bCA II; 1 μM concentration of the inhibitor; triplicate with three technical replicas;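 also: enzyme is carbonic anhydrase II isolated from bovine erythrocytes, with its activity followed photometrically at 415 nm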
T1 construct: carbonic anhydrase II (bCAII, ≥3000 W-A units/mg from bovine erythrocytes) from Sigma; purchased Sigma (Taufkirchen, Germany); host or cells: isolated from bovine erythrocytes
T1 sequence (P00921 whole entry): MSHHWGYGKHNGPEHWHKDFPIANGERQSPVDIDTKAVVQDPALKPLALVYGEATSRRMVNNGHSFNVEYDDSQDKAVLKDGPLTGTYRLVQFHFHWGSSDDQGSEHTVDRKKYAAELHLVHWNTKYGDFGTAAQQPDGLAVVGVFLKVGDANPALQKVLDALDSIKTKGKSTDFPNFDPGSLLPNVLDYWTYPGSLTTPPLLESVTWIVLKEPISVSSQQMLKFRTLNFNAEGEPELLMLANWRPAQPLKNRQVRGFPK
Procedure: The enzymatic assays have been performed with carbonic anhydrase II (bCAII, ≥3000 W-A units/mg from bovine erythrocytes) from Sigma (Taufkirchen, Germany) using a BMG Labtech Spectrostar Omega apparatus (BMG Labtech, Ortenberg, Germany) measuring λ = 415 nm. Conditions have been described previously [72]. Ki and Ki′ values were determined from Lineweaver–Burk, Dixon and Cornish Bowden plots, respectively.

NS(=O)(=O)OCCCCCCCCNS(=O)(=O)c1ccc(C23CC4CC(CC(C4)C2)C3)cc1 [77b, 8-[(4-(Adamantan-1-yl)phenyl)sulfonamido]octyl Sulfamate]
inhibition at 1 µM [1]: 32.6 ± 0.4% | melting point: 85 to 86 °C

CC(C)(C)c1cccc(S(=O)(=O)NCCCCCCCCOS(N)(=O)=O)c1 [64b, 8-[(3-(tert-Butyl)phenyl)sulfonamido]octyl Sulfamate]
inhibition at 1 µM [1]: 16 ± 0.4% | melting point: 57 to 59 °C
